Results taken from ChEMBL document CHEMBL6083256, “Design, synthesis and biological evaluation of novel oxazole derivatives as potential hypoglycemic agents” (Bioorg Med Chem, 2024).
Values belong to the molecule of their own block, whether it stands above or below them.

How the values were obtained:
[1] = tested on: HepG2; experiment: Induction of glucose consumption in starved human HepG2 cells assessed as fold increase in activity at 20 uM incubated for 24 hrs relative to control; assay type: functional
[2] = tested on: HepG2; experiment: Induction of glucose consumption in starved human HepG2 cells incubated for 24 hrs; assay type: functional, cell-based; details: dose 1-25 µM
[3] = tested on: 3T3-L1; experiment: Cytotoxicity against mouse 3T3-L1 cells at 25 uM incubated for 72 hrs by CCK8 assay; assay type: toxicity, cell-based; details: 3t3-l1, 72 h
[4] = tested on: HepG2; experiment: Cytotoxicity against human HepG2 cells at 25 uM incubated for 72 hrs by CCK8 assay; assay type: toxicity, cell-based; details: hepg2, 72 h
[5] = tested on: 3T3-L1; experiment: Cytotoxicity against mouse 3T3-L1 cells assessed as change in cell morphology at 3.125 to 100 uM incubated for 72 hrs; assay type: toxicity, cell-based; details: 3t3-l1, 72 h, dose 3.125-100 µM
[6] = Cytotoxicity against human HepG2 cells incubated for 72 hrs by CCK8 assay; assay type: toxicity, cell-based
[7] = tested on: Mus musculus; experiment: Hypoglycemic activity in overnight-fasted C57BL/6J mouse assessed as reduction in blood glucose level at 80 mg/kg, ip pretreated for 30 mins followed by glucose administration measured upto 120 mins by OGTT analysis; assay type: functional, organism-based; details: time 150.0 min
[8] = tested on: HepG2; experiment: Cytotoxicity against human HepG2 cells assessed as change in cell morphology at 3.125 to 100 uM incubated for 72 hrs; assay type: toxicity, cell-based; details: hepg2, 72 h, dose 3.125-100 µM
[9] = tested on: 3T3-L1; experiment: Induction of glucose consumption in starved mouse 3T3-L1 cells incubated for 24 hrs; assay type: functional, cell-based; details: dose 1-25 µM
[10] = Cytotoxicity against mouse 3T3-L1 cells incubated for 72 hrs by CCK8 assay; assay type: toxicity, cell-based
[11] = tested on: HepG2; experiment: Cytotoxicity against human HepG2 cells at 100 uM incubated for 72 hrs by CCK8 assay; assay type: toxicity, cell-based; details: hepg2, 72 h
[12] = tested on: 3T3-L1; experiment: Cytotoxicity against mouse 3T3-L1 cells at 100 uM incubated for 72 hrs by CCK8 assay; assay type: toxicity, cell-based; details: 3t3-l1, 72 h
[13] = target: CYP2D6 (Homo sapiens, UniProt P10635); experiment: Inhibition of CYP2D6 in human liver microsomes at 10 uM relative to control; assay type: ADME, Microsome
[14] = target: T1, CYP1A2 (Homo sapiens, UniProt P05177); experiment: Inhibition of CYP1A2 in human liver microsomes at 10 uM relative to control; assay type: ADME, Microsome
T1 sequence (P05177 whole entry): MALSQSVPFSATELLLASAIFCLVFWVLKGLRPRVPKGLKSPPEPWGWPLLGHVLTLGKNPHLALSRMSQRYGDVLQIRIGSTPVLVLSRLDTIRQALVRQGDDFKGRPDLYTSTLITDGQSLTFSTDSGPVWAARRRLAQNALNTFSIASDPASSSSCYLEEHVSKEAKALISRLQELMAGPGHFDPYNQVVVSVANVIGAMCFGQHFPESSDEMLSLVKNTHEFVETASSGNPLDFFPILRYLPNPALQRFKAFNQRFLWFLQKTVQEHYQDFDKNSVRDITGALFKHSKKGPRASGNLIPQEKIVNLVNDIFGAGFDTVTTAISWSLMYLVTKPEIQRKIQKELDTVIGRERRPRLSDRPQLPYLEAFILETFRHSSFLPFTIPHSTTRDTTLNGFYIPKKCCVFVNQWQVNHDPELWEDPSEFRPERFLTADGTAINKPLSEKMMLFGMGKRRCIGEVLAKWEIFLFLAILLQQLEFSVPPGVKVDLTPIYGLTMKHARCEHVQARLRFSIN

[15] = target: CYP2C9 (Homo sapiens, UniProt P11712); experiment: Inhibition of CYP2C9 in human liver microsomes at 10 uM relative to control; assay type: ADME, Microsome
[16] = target: CYP3A4 (Homo sapiens, UniProt P08684); experiment: Inhibition of CYP3A4 in human liver microsomes at 10 uM relative to control; assay type: ADME, Microsome
[17] = target: CYP2C19 (Homo sapiens, UniProt P33261); experiment: Inhibition of CYP2C19 in human liver microsomes at 10 uM relative to control; assay type: ADME, Microsome
[18] = target: AMP-activated protein kinase, AMPK (Homo sapiens) (UniProt P54646+O43741+P54619+Q9UGJ0+Q9Y478+Q13131+Q9UGI9); experiment: Induction of AMPK phosphorylation at Thr172 in human HepG2 cells incubated for 24 hrs by Western blot analysis; assay type: cell-based; details: filed as activator
[19] = tested on: HepG2; experiment: Induction of glucose consumption in starved human HepG2 cells assessed as fold increase in activity at 2 mM incubated for 24 hrs relative to control; assay type: functional

Sequence of CYP3A4 (P08684 whole entry): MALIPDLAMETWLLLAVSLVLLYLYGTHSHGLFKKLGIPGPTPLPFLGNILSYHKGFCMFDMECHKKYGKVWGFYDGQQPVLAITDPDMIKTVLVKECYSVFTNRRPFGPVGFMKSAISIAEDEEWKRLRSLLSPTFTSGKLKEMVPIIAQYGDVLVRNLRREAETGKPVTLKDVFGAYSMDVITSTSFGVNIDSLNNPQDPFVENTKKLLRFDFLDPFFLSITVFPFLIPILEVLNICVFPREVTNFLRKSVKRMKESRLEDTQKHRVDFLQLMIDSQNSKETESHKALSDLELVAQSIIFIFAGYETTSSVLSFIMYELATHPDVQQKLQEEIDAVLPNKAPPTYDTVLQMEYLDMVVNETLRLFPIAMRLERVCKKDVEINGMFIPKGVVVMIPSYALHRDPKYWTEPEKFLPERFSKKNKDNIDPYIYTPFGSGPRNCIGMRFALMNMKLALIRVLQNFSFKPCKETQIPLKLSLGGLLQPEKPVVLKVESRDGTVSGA
Sequence of CYP2C9 (P11712 whole entry): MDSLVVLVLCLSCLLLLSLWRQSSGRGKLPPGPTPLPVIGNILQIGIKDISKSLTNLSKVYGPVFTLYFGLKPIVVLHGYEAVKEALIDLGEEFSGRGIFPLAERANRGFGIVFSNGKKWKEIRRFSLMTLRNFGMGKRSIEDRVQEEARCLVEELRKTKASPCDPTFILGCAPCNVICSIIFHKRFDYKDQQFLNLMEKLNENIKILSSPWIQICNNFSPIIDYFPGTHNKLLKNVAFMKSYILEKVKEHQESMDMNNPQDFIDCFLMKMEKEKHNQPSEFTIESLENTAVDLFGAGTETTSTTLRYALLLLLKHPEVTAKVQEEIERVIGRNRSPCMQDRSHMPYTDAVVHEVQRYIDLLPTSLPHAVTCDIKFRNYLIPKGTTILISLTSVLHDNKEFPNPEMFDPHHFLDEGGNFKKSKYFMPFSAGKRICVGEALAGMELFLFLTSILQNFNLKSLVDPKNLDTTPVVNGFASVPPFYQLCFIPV
Sequence of CYP2D6 (P10635 whole entry): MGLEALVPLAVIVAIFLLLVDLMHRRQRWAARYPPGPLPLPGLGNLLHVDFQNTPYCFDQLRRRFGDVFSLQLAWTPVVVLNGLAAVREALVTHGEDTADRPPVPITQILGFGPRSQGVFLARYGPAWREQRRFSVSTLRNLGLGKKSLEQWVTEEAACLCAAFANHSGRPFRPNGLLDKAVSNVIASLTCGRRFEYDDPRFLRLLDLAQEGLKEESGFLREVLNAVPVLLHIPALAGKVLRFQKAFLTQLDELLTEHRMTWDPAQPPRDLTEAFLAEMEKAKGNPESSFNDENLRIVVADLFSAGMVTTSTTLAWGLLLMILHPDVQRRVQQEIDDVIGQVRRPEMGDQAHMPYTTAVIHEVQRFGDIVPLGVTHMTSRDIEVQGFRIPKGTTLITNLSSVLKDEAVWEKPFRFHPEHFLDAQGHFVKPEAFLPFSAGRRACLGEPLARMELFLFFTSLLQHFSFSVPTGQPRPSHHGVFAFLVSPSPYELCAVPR
Sequence of CYP2C19 (P33261 whole entry): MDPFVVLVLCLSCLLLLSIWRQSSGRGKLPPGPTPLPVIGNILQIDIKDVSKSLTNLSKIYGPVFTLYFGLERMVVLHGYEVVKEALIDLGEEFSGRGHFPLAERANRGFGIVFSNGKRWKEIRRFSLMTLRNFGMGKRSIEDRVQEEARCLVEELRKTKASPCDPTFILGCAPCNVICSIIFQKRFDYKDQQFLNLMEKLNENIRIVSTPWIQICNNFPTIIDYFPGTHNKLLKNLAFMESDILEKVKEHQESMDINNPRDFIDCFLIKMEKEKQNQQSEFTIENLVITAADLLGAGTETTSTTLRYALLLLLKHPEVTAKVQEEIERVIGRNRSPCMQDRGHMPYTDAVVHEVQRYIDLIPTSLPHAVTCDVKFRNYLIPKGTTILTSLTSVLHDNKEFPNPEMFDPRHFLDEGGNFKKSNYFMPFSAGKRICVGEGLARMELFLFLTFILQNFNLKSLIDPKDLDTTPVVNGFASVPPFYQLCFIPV

SMILES: Cc1ccc(-c2nc(CN3CCC(CO)CC3)co2)cc1
fold change (FC) [1]: 1.39

SMILES: CS(=O)(=O)N1CCN(Cc2coc(-c3ccc(C(F)(F)F)cc3)n2)CC1
Activity [2]: Dose-dependent-effect
Activity [3]: Non-toxic
fold change (FC) [1]: 1.63
Activity [4]: Non-toxic
Activity [5]: Non-toxic
IC50 at 72 h [6]: > 100 µM
Activity [7]: Not active; Exhibited Minimal Activity
Activity [8]: Non-toxic
Activity [9]: Dose-dependent-effect
IC50 at 72 h [10]: > 100 µM

SMILES: NC1CCN(Cc2coc(-c3ccc(C(F)(F)F)cc3)n2)CC1
Activity [11]: Toxic
Activity [2]: Dose-dependent-effect
Activity [12]: Toxic
fold change (FC) [1]: 1.6
Activity [7]: Not active; Exhibited Minimal Activity
Activity [9]: Dose-dependent-effect

SMILES: OCC1CCN(Cc2coc(-c3ccccc3)n2)CC1
fold change (FC) [1]: 1.36

SMILES: COc1ccc(-c2nc(CN3CCC(CO)CC3)co2)cc1
fold change (FC) [1]: 1.05

SMILES: OCC1CCN(Cc2coc(-c3ccc(Cl)cc3)n2)CC1
fold change (FC) [1]: 1.24

SMILES: OCC1CCN(Cc2coc(-c3cc(F)cc(F)c3)n2)CC1
fold change (FC) [1]: 0.95

SMILES: OC1CCN(Cc2coc(-c3ccc(C(F)(F)F)cc3)n2)CC1
fold change (FC) [1]: 1.42

SMILES: FC(F)(F)c1ccc(-c2nc(CN3CCOCC3)co2)cc1
fold change (FC) [1]: 1.52

SMILES: CC(=O)N1CCN(Cc2coc(-c3ccc(C(F)(F)F)cc3)n2)CC1
fold change (FC) [1]: 1.21

SMILES: OCC1CCN(Cc2coc(-c3cccc(F)c3)n2)CC1
fold change (FC) [1]: 1.12

SMILES: CS(=O)(=O)C1CCN(Cc2coc(-c3ccc(C(F)(F)F)cc3)n2)CC1
fold change (FC) [1]: 1.39

SMILES: OCC1CCN(Cc2coc(-c3ccc(C(F)(F)F)cc3)n2)CC1
fold change (FC) [1]: 1.43

SMILES: COCC1CCN(Cc2coc(-c3ccc(C(F)(F)F)cc3)n2)CC1
fold change (FC) [1]: 1.2

SMILES: COc1cccc(-c2nc(CN3CCC(CO)CC3)co2)c1
fold change (FC) [1]: 1.27

SMILES: OCC1CCN(Cc2coc(-c3ccc(F)cc3)n2)CC1
fold change (FC) [1]: 1.27

SMILES: OCC1CCN(Cc2coc(-c3cccc(C(F)(F)F)c3)n2)CC1
fold change (FC) [1]: 1.4

SMILES: CN1CCN(Cc2coc(-c3ccc(C(F)(F)F)cc3)n2)CC1
fold change (FC) [1]: 1.5

SMILES: CCOC(=O)C1CCN(Cc2coc(-c3ccc(C(F)(F)F)cc3)n2)CC1
fold change (FC) [1]: 1.34

SMILES: OCC1CCN(Cc2coc(-c3cccc(Cl)c3)n2)CC1
fold change (FC) [1]: 1.05

SMILES: CCOC1CCN(Cc2coc(-c3ccc(C(F)(F)F)cc3)n2)CC1
fold change (FC) [1]: 1.42

SMILES: COC1CCN(Cc2coc(-c3ccc(C(F)(F)F)cc3)n2)CC1
Activity [2]: Dose-dependent-effect
Activity [3]: Non-toxic
fold change (FC) [1]: 1.61
Activity [4]: Non-toxic
Activity [5]: Non-toxic
IC50 at 72 h [6]: > 100 µM
Activity [7]: Not active; Exhibited Weak Activity
Activity [8]: Non-toxic
Activity [9]: Dose-dependent-effect
IC50 at 72 h [10]: > 100 µM

SMILES: OC1CCCN(Cc2coc(-c3ccc(C(F)(F)F)cc3)n2)C1 (configuration not stated)
fold change (FC) [1]: 1.49

inhibition at 10 µM [13]: 4.6%
inhibition at 10 µM [14]: 16.2%
inhibition at 10 µM [15]: 5.8%
inhibition at 10 µM [16]: 2.1%
inhibition at 10 µM [17]: 21.7%
Activity [18]: Dose-dependent-effect
SMILES: COC(=O)C1CCN(Cc2coc(-c3ccc(C(F)(F)F)cc3)n2)CC1
Activity [2]: Dose-dependent-effect
Activity [3]: Non-toxic
fold change (FC) [1]: 1.6
Activity [4]: Non-toxic
Activity [5]: Non-toxic
IC50 at 72 h [6]: > 100 µM
Activity [7]: Active; Exhibited Strongest Activity Than Other Tested Compounds
Activity [8]: Non-toxic
Activity [9]: Dose-dependent-effect
IC50 at 72 h [10]: > 100 µM

SMILES: CC(C)(C)OC(=O)N1CCN(Cc2coc(-c3ccc(C(F)(F)F)cc3)n2)CC1
fold change (FC) [1]: 1.46

SMILES: COC1CCCN(Cc2coc(-c3ccc(C(F)(F)F)cc3)n2)C1 (configuration not stated)
fold change (FC) [1]: 1.05

SMILES: CN(C)C(=N)NC(=N)N [METFORMIN]
fold change (FC) [19]: 1.57

SMILES: Cc1cccc(-c2nc(CN3CCC(CO)CC3)co2)c1
fold change (FC) [1]: 1.25

SMILES: OCC1CCCN(Cc2coc(-c3ccc(C(F)(F)F)cc3)n2)C1 (configuration not stated)
fold change (FC) [1]: 1.42
